Consider 17 compounds from US10251892B2, “Bicyclic heterocycles as FGFR4 inhibitors” (Incyte Corporation, priority 2015, dated 2019).

Chain of FGFR3 enzyme (P22607 23-806): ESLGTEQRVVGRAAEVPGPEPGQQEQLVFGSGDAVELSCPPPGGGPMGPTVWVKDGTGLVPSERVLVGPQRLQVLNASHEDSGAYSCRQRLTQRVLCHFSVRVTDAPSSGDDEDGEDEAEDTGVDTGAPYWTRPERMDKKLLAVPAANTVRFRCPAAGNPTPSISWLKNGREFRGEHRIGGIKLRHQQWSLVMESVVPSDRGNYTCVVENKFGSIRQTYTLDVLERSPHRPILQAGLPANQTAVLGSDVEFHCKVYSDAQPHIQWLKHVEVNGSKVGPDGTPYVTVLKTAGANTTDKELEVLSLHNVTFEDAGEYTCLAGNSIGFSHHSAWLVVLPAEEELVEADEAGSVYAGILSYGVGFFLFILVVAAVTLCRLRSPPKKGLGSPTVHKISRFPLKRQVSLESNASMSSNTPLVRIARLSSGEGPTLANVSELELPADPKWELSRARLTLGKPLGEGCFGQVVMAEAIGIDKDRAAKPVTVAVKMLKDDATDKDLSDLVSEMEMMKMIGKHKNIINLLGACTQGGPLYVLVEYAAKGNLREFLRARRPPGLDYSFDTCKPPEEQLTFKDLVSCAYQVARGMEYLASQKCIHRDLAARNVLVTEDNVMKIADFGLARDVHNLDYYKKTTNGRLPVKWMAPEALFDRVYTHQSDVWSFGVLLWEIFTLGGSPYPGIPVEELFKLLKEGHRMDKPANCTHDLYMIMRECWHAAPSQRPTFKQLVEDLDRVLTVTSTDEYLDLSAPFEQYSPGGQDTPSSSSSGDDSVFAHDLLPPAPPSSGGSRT

The assay addresses FGFR3 enzyme (Homo sapiens (Human), UniProt P22607). Description: FGFR Enzymatic Assay (peptide phosphorylation, FRET), FGFR3. The assay is classed as biochemical. The conditions noted are these: IC50 ratio showing FGFR3 selectivity; pre-incubated for 4 hours. On the procedure: The inhibitor potency of the exemplified compounds was measured in an enzyme assay that measures peptide phosphorylation using FRET measurements to detect product formation. Inhibitors were serially diluted in DMSO and a volume of 0.5 μL was transferred to the wells of a 384-well plate.
GraphPad prism3 was used to analyze the data.
For the compound `COc1cc(OC)c(F)c(N2Cc3cnc(-c4cnn(CCN5CCC(OC)C5)c4)cc3C3(CC3)C2=O)c1F` (stereo not drawn) [Example 161, 2′-(2,6-difluoro-3,5-dimethoxyphenyl)-6′-(1-(2-(3-methoxypyrrolidin-1-yl)ethyl)-1H-pyrazol-4-yl)-1′H-spiro[cyclopropane-1,4′-[2,7]naphthyridin]-3′(2′H)-one], the FGFR1/FGFR3 is listed as more than 5 and the FGFR4/FGFR3 is given as more than 3.

On to `CCN1C(=O)N(c2c(F)c(OC)cc(OC)c2F)Cc2cnc(-c3ccc(C(=O)NCCO)nc3)cc21` [Example 177, 5-(3-(2,6-difluoro-3,5-dimethoxyphenyl)-1-ethyl-2-oxo-1,2,3,4-tetrahydropyrido[4,3-d]pyrimidin-7-yl)-N-(2-hydroxyethyl)picolinamide], for which the FGFR1/FGFR3 was more than 5 and the FGFR4/FGFR3 is on record as more than 10.

On to `COc1cc(OC)c(F)c(N2Cc3cnc(-c4cn(C)nc4C)cc3N(Cc3cncnc3)C2=O)c1F` [Example 84, 3-(2,6-difluoro-3,5-dimethoxyphenyl)-7-(1,3-dimethyl-1H-pyrazol-4-yl)-1-(pyrimidin-5-ylmethyl)-3,4-dihydropyrido[4,3-d]pyrimidin-2(1H)-one], for which the FGFR1/FGFR3 is on record as more than 5 and the FGFR4/FGFR3 is recorded as more than 5.

Consider `COc1cc(OC)c(F)c(N2Cc3cnc(-c4cn(C)nc4C)cc3N(c3ccc4cn[nH]c4c3)C2=O)c1F` [Example 133, 3-(2,6-difluoro-3,5-dimethoxyphenyl)-7-(1,3-dimethyl-1H-pyrazol-4-yl)-1-(1H-indazol-6-yl)-3,4-dihydropyrido[4,3-d]pyrimidin-2(1H)-one], for which the FGFR1/FGFR3 is more than 3 and the FGFR4/FGFR3 is listed as more than 5.

For the compound `COc1cc(OC)c(F)c(N2Cc3cnc(-c4cn(C)nc4C)cc3N(c3ccc(-n4cccn4)cc3)C2=O)c1F` [Example 77, 1-(4-(1H-pyrazol-1-yl)phenyl)-3-(2,6-difluoro-3,5-dimethoxyphenyl)-7-(1,3-dimethyl-1H-pyrazol-4-yl)-3,4-dihydropyrido[4,3-d]pyrimidin-2(1H)-one], the FGFR1/FGFR3 is on record as more than 5 and the FGFR4/FGFR3 is more than 10.

Turning to `COc1cc(OC)c(F)c(N2Cc3cnc(-c4cnn(CCC5CCN(S(C)(=O)=O)CC5)c4)cc3C3(CC3)C2=O)c1F` [Example 148, 2′-(2,6-difluoro-3,5-dimethoxyphenyl)-6′-(1-(2-(1-(methylsulfonyl)piperidin-4-yl)ethyl)-1H-pyrazol-4-yl)-1′H-spiro[cyclopropane-l,4′-[2,7]naphthyridin]-3′(2′H)-one], the FGFR1/FGFR3 was more than 10 and the FGFR4/FGFR3 is more than 3.

For the compound `CNS(=O)(=O)c1cccc(N2C(=O)N(c3c(F)c(OC)cc(OC)c3F)Cc3cnc(-c4cn(C)nc4C)cc32)c1` [Example 111, 3-(3-(2,6-difluoro-3,5-dimethoxyphenyl)-7-(1,3-dimethyl-1H-pyrazol-4-yl)-2-oxo-3,4-dihydropyrido[4,3-d]pyrimidin-1(2H)-yl)-N-methylbenzenesulfonamide], the FGFR1/FGFR3 is more than 3 and the FGFR4/FGFR3 is more than 5.

As for `COc1cc(OC)c(F)c(N2Cc3cnc(-c4cnn(CCCN5CCOCC5)c4)cc3C3(CC3)C2=O)c1F` [Example 151, 2′-(2,6-difluoro-3,5-dimethoxyphenyl)-6′-(1-(3-morpholinopropyl)-1H-pyrazol-4-yl)-1′H-spiro[cyclopropane-1,4′-[2,7]naphthyridin]-3′(2′H)-one], the FGFR1/FGFR3 is on record as more than 5 and the FGFR4/FGFR3 is reported as more than 5.

Take `COc1cc(OC)c(F)c(N2Cc3cnc(-c4cn(C)nc4C)cc3N(Cc3cnn(C)c3)C2=O)c1F` [Example 72, 3-(2,6-difluoro-3,5-dimethoxyphenyl)-7-(1,3-dimethyl-1H-pyrazol-4-yl)-1-((1-methyl-1H-pyrazol-4-yl)methyl)-3,4-dihydropyrido[4,3-d]pyrimidin-2(1H)-one]: the FGFR1/FGFR3 was more than 5 and the FGFR4/FGFR3 is more than 10.

On to `CNC(=O)c1ccc(-c2cc3c(cn2)CN(c2c(F)c(OC)cc(OC)c2F)C(=O)C32CC2)cc1` [Example 19, 4-(2′-(2,6-difluoro-3,5-dimethoxyphenyl)-3′-oxo-2′,3′-dihydro-1′H-spiro[cyclopropane-1,4′-[2,7]naphthyridine]-6′-yl)-N-methylbenzamide], for which the FGFR1/FGFR3 was more than 5.

As to `COc1cc(OC)c(F)c(N2Cc3cnc(-c4cnn(CC5CN(S(C)(=O)=O)C5)c4)cc3C3(CC3)C2=O)c1F` [Example 166, 2′-(2,6-difluoro-3,5-dimethoxyphenyl)-6′-(1-((1-(methylsulfonyl)azetidin-3-yl)methyl)-1H-pyrazol-4-yl)-1′H-spiro[cyclopropane-1,4′-[2,7]naphthyridin]-3′(2′H)-one], the FGFR1/FGFR3 is on record as more than 3 and the FGFR4/FGFR3 is listed as more than 3.

On to `COc1cc(OC)c(F)c(N2Cc3cnc(-c4cn(C)nc4C)cc3N(Cc3csc(C)n3)C2=O)c1F` [Example 95, 3-(2,6-difluoro-3,5-dimethoxyphenyl)-7-(1,3-dimethyl-1H-pyrazol-4-yl)-1-((2-methylthiazol-4-yl)methyl)-3,4-dihydropyrido[4,3-d]pyrimidin-2(1H)-one], for which the FGFR1/FGFR3 is more than 5 and the FGFR4/FGFR3 is on record as more than 10.

On to `COc1cc(OC)c(F)c(N2Cc3cnc(-c4cn(C)nc4C)cc3N(c3ccc(CC#N)cc3)C2=O)c1F` [Example 97, 2-(4-(3-(2,6-difluoro-3,5-dimethoxyphenyl)-7-(1,3-dimethyl-1H-pyrazol-4-yl)-2-oxo-3,4-dihydropyrido[4,3-d]pyrimidin-1(2H)-yl)phenyl)acetonitrile], for which the FGFR1/FGFR3 is recorded as more than 5 and the FGFR4/FGFR3 was more than 10.

Consider `COc1cc(OC)c(F)c(N2Cc3cnc(-c4cn(C)nc4C)cc3N(Cc3nnc(C)o3)C2=O)c1F` [Example 46, 3-(2,6-difluoro-3,5-dimethoxyphenyl)-7-(1,3-dimethyl-1H-pyrazol-4-yl)-1-[(5-methyl-1,3,4-oxadiazol-2-yl)methyl]-3,4-dihydropyrido[4,3-d]pyrimidin-2(1H)-one], for which the FGFR1/FGFR3 is given as more than 10 and the FGFR4/FGFR3 is recorded as more than 10.

On to `COc1cc(OC)c(F)c(N2Cc3cnc(-c4cnn(C5(C#N)CCC5)c4C)cc3C3(CC3)C2=O)c1F` [Example 149, 1-(4-(2′-(2,6-difluoro-3,5-dimethoxyphenyl)-3′-oxo-2′,3′-dihydro-1′H-spiro[cyclopropane-1,4′-[2,7]naphthyridine]-6′-yl)-5-methyl-1H-pyrazol-1-yl)cyclobutanecarbonitrile], for which the FGFR1/FGFR3 was more than 5 and the FGFR4/FGFR3 is recorded as more than 3.

Take `COc1cc(OC)c(F)c(N2Cc3cnc(-c4cn(C)nc4C)cc3N(Cc3ccncn3)C2=O)c1F` [Example 65, 3-(2,6-difluoro-3,5-dimethoxyphenyl)-7-(1,3-dimethyl-1H-pyrazol-4-yl)-1-(pyrimidin-4-ylmethyl)-3,4-dihydropyrido[4,3-d]pyrimidin-2(1H)-one]: the FGFR1/FGFR3 was more than 5 and the FGFR4/FGFR3 is listed as more than 10.

Consider `COc1cc(OC)c(F)c(N2Cc3cnc(-c4cnn(C)c4)cc3C3(CC3)C2=O)c1F` [Example 186, 2′-(2,6-difluoro-3,5-dimethoxyphenyl)-6′-(1-methyl-H-pyrazol-4-yl)-1′,2′-dihydro-3′H-spiro[cyclopropane-1,4′-[2,7]naphthyridin]-3′-one], for which the FGFR1/FGFR3 is given as more than 5 and the FGFR4/FGFR3 was more than 5.
